Results from US20250353864A1, “INDAZOLE CONTAINING MACROCYCLES AND THEIR USE” (BLOSSOMHILL THERAPEUTICS, INC., priority 2022, published 2025).
pIC50: −log10 of the molar value.

Columns and labels:
Format in all cases: biochemical
[1] = target: EGFR WT (Homo sapiens (Human), UniProt P00533); test: HotSpot radiometric kinase assay (Reaction Biology), EGFR WT; settings: 10 μM ATP
In short: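 10 μM ATP (33P-labelled, final); 120 min RT; P81 filter capture, 0.75% phosphoric acid washes. Cpd preincubated ~20 min with enzyme/substrate, 20 mM Hepes pH 7.5, 10 mM MgCl2, 1% DMSO. IC50 by curve fit.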

[2] = target: EGFR (D770_N771insNPG) (Homo sapiens (Human), UniProt P00533, INS770NPG); test: HotSpot radiometric kinase assay, EGFR (D770_N771insNPG); settings: 10 μM ATP, read-out: EGFR (Δ770_N771insNPG) IC50
In short: (§1)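 Radiometric filter-binding assay with EGFR mutant kinase/substrate pairs in 20 mM Hepes pH 7.5 with Mg, EGTA, Brij35, BSA, Na3VO4, DTT, 1% DMSO. Compound preincubated ~20 min, then ATP/^33P-ATP added at 10 μM final. Reaction 120 min at room temperature, spotted on P81 paper; IC50 from curve fits.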

[3] = target: EGFR Δ746-750 mutant (Homo sapiens (Human), UniProt P00533, DEL746-750); test: HotSpot radiometric kinase assay, EGFR Δ746-750 mutant; settings: 10 μM ATP
EGFR Δ746-750 mutant, sequence (P00533 other isoform, or with tags, fused parts or gaps del 1-668/del 746-750 limits assumed): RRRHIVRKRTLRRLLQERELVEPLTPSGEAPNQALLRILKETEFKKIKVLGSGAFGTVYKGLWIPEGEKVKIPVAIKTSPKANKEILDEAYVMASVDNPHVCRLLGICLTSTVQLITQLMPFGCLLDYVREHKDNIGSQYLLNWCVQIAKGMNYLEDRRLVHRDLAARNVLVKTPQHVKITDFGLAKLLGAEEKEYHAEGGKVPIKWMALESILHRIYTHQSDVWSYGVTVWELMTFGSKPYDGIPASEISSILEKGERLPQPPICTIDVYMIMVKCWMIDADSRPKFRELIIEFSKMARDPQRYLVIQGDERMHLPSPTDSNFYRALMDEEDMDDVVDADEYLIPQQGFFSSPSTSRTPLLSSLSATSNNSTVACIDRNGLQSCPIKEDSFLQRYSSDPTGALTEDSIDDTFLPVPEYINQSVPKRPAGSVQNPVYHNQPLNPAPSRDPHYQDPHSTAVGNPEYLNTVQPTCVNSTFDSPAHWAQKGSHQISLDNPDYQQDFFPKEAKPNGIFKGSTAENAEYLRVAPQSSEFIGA
In short: as §1

[4] = target: EGFR Δ746-750/C797S mutant (Homo sapiens (Human), UniProt P00533, C797S/DEL746-750); test: HotSpot radiometric kinase assay, EGFR Δ746-750/C797S mutant; settings: 10 μM ATP
EGFR Δ746-750/C797S mutant, sequence (P00533 other isoform, or with tags, fused parts or gaps C797S/del 1-668/del 746-750 limits assumed): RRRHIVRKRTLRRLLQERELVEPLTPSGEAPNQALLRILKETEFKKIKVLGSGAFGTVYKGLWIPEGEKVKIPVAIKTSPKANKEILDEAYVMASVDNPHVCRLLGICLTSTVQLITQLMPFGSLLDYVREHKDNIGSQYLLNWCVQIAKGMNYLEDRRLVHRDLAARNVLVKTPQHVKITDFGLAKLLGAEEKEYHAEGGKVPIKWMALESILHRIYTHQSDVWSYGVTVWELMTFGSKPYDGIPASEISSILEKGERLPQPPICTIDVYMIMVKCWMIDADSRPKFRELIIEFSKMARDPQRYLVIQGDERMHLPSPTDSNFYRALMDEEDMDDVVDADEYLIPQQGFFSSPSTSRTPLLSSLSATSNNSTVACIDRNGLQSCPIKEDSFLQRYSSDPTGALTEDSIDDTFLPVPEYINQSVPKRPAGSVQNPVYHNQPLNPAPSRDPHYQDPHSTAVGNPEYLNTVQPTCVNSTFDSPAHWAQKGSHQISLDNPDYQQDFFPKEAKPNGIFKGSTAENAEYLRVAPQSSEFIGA
In short: as §1

[5] = target: EGFR L858R mutant (Homo sapiens (Human), UniProt P00533, L858R); test: HotSpot radiometric kinase assay, EGFR L858R mutant; settings: 10 μM ATP
EGFR L858R mutant, sequence (P00533 25-1210 L858R): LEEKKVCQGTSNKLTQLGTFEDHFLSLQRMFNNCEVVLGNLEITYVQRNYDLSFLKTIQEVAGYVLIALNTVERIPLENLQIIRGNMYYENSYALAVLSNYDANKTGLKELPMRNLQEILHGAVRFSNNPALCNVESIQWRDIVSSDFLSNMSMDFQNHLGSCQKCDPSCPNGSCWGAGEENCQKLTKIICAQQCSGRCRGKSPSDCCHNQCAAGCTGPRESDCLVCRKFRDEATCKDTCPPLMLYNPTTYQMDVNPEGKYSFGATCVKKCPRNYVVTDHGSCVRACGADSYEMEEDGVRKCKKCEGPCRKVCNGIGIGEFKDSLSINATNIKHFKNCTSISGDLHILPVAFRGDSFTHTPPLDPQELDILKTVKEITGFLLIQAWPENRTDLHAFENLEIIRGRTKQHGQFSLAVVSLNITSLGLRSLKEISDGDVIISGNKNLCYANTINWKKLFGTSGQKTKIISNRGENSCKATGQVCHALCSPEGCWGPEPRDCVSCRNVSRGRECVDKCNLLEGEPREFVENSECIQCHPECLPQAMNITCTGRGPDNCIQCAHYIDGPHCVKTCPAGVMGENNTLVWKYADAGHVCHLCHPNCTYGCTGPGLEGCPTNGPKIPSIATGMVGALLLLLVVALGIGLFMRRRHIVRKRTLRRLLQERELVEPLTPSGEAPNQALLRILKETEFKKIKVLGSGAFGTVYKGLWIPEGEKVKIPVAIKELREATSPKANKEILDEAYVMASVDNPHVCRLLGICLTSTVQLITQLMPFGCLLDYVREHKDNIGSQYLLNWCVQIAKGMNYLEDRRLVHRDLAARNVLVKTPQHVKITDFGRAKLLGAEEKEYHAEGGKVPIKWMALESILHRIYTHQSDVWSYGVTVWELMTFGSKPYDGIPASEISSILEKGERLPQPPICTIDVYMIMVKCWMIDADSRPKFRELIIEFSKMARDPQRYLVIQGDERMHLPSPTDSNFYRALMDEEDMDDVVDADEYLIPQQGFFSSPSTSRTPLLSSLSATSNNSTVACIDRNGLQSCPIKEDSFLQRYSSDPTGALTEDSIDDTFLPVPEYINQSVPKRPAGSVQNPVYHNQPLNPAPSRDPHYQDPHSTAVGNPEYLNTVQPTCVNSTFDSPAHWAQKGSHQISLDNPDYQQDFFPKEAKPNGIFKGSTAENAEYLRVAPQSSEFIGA
In short: as §1

[6] = target: EGFR L858R/T790M mutant (Homo sapiens (Human), UniProt P00533, L858R/T790M); test: HotSpot radiometric kinase assay, EGFR L858R/T790M mutant; settings: 10 μM ATP
EGFR L858R/T790M mutant, sequence (P00533 25-1210 T790M/L858R): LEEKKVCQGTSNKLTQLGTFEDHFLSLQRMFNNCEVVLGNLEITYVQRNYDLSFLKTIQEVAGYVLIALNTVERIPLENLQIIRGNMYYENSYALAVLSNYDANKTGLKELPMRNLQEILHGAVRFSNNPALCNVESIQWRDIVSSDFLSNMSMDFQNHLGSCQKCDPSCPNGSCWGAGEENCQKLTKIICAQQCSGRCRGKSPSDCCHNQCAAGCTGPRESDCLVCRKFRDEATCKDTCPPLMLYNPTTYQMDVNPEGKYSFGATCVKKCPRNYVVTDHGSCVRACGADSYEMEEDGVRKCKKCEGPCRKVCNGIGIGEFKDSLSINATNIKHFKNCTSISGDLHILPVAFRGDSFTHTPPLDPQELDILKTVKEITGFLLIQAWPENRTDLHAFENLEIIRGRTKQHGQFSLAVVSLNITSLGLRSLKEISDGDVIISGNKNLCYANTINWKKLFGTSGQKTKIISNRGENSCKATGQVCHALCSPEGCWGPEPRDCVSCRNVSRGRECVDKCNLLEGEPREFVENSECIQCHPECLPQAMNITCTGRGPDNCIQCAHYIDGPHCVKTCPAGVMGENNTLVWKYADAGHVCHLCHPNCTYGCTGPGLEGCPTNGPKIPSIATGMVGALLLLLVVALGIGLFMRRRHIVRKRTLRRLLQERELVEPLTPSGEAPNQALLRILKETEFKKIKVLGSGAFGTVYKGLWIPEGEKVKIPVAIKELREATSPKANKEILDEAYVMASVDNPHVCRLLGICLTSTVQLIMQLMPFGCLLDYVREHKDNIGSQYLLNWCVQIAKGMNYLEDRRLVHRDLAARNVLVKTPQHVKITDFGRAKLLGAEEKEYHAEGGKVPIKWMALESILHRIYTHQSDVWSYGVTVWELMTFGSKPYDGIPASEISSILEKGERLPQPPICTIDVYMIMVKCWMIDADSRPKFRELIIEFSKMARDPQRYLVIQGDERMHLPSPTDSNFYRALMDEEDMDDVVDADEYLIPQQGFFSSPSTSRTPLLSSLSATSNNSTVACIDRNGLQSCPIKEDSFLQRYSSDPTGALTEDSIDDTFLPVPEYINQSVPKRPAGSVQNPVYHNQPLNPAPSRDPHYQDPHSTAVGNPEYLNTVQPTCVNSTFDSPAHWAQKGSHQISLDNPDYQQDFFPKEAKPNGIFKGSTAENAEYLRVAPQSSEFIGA
Description: Biochemical Assays for Inhibition of Wild-Type and Mutant EGFRs
Briefly, specific kinase/substrate pairs along with required cofactors were prepared in reaction buffer; 20 mM Hepes pH 7.5, 10 mM […], 1 mM EGTA, 0.02% Brij35, 0.02 mg/ml BSA, 0.1 mM Na3VO4, 2 mM DTT, 1% DMSO. Compounds were delivered into the reaction, followed […] later by addition of a mixture of ATP (Sigma, St. Louis MO) and ^33P ATP (Perkin Elmer, Waltham MA) to a final concentration of 10 μM. Reactions were carried out at room temperature for 120 min, followed by spotting of the reactions onto P81 ion exchange filter paper (Whatman Inc., Piscataway, NJ). Unbound phosphate was removed by extensive washing of filters in 0.75% phosphoric acid. […] IC50 values and curve fits were obtained using Prism (GraphPad Software).

[7] = target: EGFR L858R/T790M/C797S mutant (Homo sapiens (Human), UniProt P00533, C797S/L858R/T790M); test: HotSpot radiometric kinase assay, EGFR L858R/T790M/C797S mutant; settings: 10 μM ATP
In short: as §1

EGFR WT, sequence (P00533 25-1210): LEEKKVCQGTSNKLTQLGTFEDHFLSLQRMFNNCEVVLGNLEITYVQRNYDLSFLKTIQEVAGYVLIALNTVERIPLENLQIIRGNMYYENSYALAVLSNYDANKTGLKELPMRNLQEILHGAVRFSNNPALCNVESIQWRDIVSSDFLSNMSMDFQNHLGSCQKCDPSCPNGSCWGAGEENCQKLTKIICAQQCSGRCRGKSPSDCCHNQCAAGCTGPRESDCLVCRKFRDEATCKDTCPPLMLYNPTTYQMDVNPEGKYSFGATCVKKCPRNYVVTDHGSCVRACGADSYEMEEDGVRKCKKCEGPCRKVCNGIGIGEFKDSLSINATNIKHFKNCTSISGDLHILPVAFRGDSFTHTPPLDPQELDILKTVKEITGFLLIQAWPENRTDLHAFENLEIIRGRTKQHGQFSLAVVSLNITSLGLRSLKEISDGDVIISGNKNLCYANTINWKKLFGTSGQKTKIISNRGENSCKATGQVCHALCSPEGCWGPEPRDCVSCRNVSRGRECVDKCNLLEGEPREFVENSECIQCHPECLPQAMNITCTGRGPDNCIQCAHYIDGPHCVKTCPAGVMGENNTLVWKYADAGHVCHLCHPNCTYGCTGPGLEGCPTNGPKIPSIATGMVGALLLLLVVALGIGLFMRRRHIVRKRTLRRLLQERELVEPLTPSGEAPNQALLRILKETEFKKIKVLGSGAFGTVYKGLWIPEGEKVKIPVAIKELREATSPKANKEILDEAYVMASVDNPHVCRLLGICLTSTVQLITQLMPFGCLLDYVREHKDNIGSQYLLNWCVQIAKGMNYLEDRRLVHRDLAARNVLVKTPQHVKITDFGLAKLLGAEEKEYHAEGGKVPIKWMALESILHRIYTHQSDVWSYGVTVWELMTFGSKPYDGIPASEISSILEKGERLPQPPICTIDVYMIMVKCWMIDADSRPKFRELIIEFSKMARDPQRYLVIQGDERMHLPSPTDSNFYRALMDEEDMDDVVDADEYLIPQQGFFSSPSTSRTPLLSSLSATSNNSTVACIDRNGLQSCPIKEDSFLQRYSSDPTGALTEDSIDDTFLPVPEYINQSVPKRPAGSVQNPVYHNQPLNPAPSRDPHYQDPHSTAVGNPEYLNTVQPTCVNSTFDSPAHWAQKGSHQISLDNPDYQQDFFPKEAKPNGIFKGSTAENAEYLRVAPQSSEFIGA

| Structure (SMILES) | pIC50 [1] | pIC50 [2] | pIC50 [3] | pIC50 [4] | pIC50 [5] | pIC50 [6] | pIC50 [7] |
| --- | --- | --- | --- | --- | --- | --- | --- |
| CCOc1nn(CCO)c2c1/C=C/c1n[nH]c3ccc(cc13)-c1c(C)nn(C)c1O[C@H](C)CN(C1CC1)C2 [Example 204] | 8.26 | 7.70 | 8.73 | 8.71 | 8.26 | 8.75 | 8.60 |
| Cc1nn([C@H]2COC[C@@H]2O)c2c1/C=C/c1n[nH]c3ccc(cc13)-c1cnn(C)c1OCCCO2 (single isomer, unassigned) [Example 76] | 6.27 | 6.63 | 6.83 | 7.04 | 6.81 | 7.37 | 7.20 |
| CCc1nn(CCN2CC[C@H](O)C2)c2c1/C=C/c1n[nH]c3ccc(cc13)-c1cnn(C)c1OCCCO2 [Example 69, (3S)-1-{2-[(17E)-16-ethyl-8-methyl-2,8,11,12-tetrahydro-10H,14H-3,5-etheno[1,5]dioxacyclopentadecino[10,11-c:15,14-c′:6,7-c″]tripyrazol-14-yl]ethyl}pyrrolidin-3-ol] | 6.39 | 6.51 | 7.03 | 7.03 | 6.92 | 7.83 | 7.59 |
| C[C@H]1CN(C)Cc2c(c(OC3CN(S(C)(=O)=O)C3)nn2CCO)/C=C/c2n[nH]c3ccc(cc23)-c2cnn(C)c2O1 [Example 221, 2-[(10S,17E)-16-{[1-(methanesulfonyl)azetidin-3-yl]oxy}-8,10,12-trimethyl-2,8,10,11,12,13-hexahydro-14H-3,5-ethenotripyrazolo[3,4-f:3′,4′-j:4″,3″-n][1,4]oxazacyclopentadecin-14-yl]ethan-1-ol] | 8.38 | 7.99 | 9.26 | 9.46 | 9.01 | 9.68 | 9.85 |
| Cc1nn(C)c2c1/C=C/c1n[nH]c3ccc(cc13)-c1cnn(C)c1OCCN(C)C(=O)CO2 [Example 63, (19E)-8,12,16,18-tetramethyl-2,11,12,16-tetrahydro-8H,10H-3,5-ethenotripyrazolo[3,4-h:3′,4′-l:4″,3″- p][1,7,4]dioxazacycloheptadecin-13(14H)-one] | 6.11 | < 6.00 | 6.53 | 6.64 | 6.08 | 7.36 | 7.48 |
| C[C@H]1CN(C)Cc2c(c(OC3CN(S(C)(=O)=O)C3)nn2C)/C=C/c2n[nH]c3ccc(cc23)-c2cnn(C)c2O1 [Example 150, (10S,17E)-16-{[1-(methanesulfonyl)azetidin-3-yl]oxy}-8,10,12,14-tetramethyl-2,10,11,12,13,14-hexahydro-8H-3,5-ethenotripyrazolo[3,4-f:3′,4′-j:4″,3″-n][1,4]oxazacyclopentadecine] | 8.20 | 7.48 | 8.49 | 8.59 | 8.64 | 9.35 | 9.43 |
| Cc1nn(C)c2c1-c1ccc3[nH]nc(c3c1)/C=C/c1c(OC(C)C)nn(CCO)c1CN(C(C)C)C[C@@H](C)O2 [Example 202, 2-{(10R,17E)-6,8,10-trimethyl-12-(propan-2-yl)-16-[(propan-2-yl)oxy]-2,8,10,11,12,13-hexahydro-14H-3,5-ethenotripyrazolo[3,4-f:3′,4′-j:4″,3″-n][1,4]oxazacyclopentadecin-14-yl}ethan-1-ol] | 6.75 | 6.37 | 7.35 | 7.68 | 7.01 | 8.47 | 8.70 |
| CCOc1nn(CCO)c2c1/C=C/c1n[nH]c3cc(F)c(cc13)-c1c(C)nn(C)c1O[C@@H](C)CN(C(C)C)C2 [Example 239, 2-[(10S,17E)-16-ethoxy-19-fluoro-6,8,10-trimethyl-12-(propan-2-yl)-2,8,10,11,12,13-hexahydro-14H-3,5-ethenotripyrazolo[3,4-f:3′,4′-j:4″,3″-n][1,4]oxazacyclopentadecin-14-yl]ethan-1-ol] | 7.21 | 6.28 | 7.74 | 8.03 | 7.52 | 7.44 | 8.07 |
| Cc1c2c(nn1[C@H]1CCOC[C@@H]1O)OCCCOc1c(cnn1C)-c1ccc3[nH]nc(c3c1)/C=C/2 (racemic) [Example 87, (rac)-1,5-anhydro-2,3-dideoxy-3-[(17E)-8,16-dimethyl-2,8,11,12-tetrahydro-10H,15H-3,5-etheno[1,5]dioxacyclopentadecino[10,11-c:15,14-c′:6,7-c″ ]tripyrazol-15-yl]-L-threo-pentitol] | < 6.00 | < 6.00 | < 6.00 | < 6.00 | < 6.00 | < 6.00 | < 6.00 |
| C[C@H]1CN(C)Cc2c(c(OC3CCN(S(C)(=O)=O)CC3)nn2CCO)/C=C/c2n[nH]c3ccc(cc23)-c2cnn(C)c2O1 [Example 175, 2-[(10S,17E)-16-{[1-(methanesulfonyl)piperidin-4-yl]oxy}-8,10,12-trimethyl-2,8,10,11,12,13-hexahydro-14H-3,5-ethenotripyrazolo[3,4-f:3′,4′-j:4″,3″- n][1,4]oxazacyclopentadecin-14-yl]ethan-1-ol] | 6.76 | 6.15 | 7.17 | 8.05 | 7.37 | 8.69 | 8.47 |
| CCOc1nn(CCO)c2c1/C=C/c1n[nH]c3ccc(cc13)-c1cnn(C)c1O[C@H](C)CN(C(C)=O)C2 [Example 217, 1-[(10R,17E)-16-ethoxy-14-(2-hydroxyethyl)-8,10-dimethyl-2,8,10,11,13,14-hexahydro-12H-3,5-ethenotripyrazolo[3,4-f:3′,4′-j:4″,3″-n][1,4]oxazacyclopentadecin-12-yl]ethan-1-one] | 7.14 | 6.97 | 8.44 | 8.71 | 7.43 | 9.16 | 8.85 |
| Cc1nn(C[C@@H](C)O)c2c1/C=C/c1n[nH]c3ccc(cc13)-c1cnn(C)c1O[C@@H](C)CN(C)C2 [Example 127, (2R)-1-[(10S,17E)-8,10,12,16-tetramethyl-2,8,10,11,12,13-hexahydro-14H-3,5-ethenotripyrazolo[3,4-f:3′,4′-j:4″,3″-n][1,4]oxazacyclopentadecin-14-yl]propan-2-ol] | 7.95 | 7.59 | 8.55 | 9.07 | 8.74 | 9.82 | 9.37 |
| Cc1c2c(nn1CCN1CCOCC1)CN(C)C[C@H](C)Oc1c(cnn1C)-c1ccc3[nH]nc(c3c1)/C=C/2 [Example 93, (10S,17E)-8,10,12,16-tetramethyl-15-[2-(morpholin-4-yl)ethyl]-2,10,11,12,13,15-hexahydro-8H-3,5-ethenotripyrazolo[3,4-f:3′,4′-j:4″,3″- n][1,4]oxazacyclopentadecine] | 7.16 | 6.86 | 7.31 | 7.78 | 7.94 | 9.07 | 8.30 |
| C[C@H]1CN(C)Cc2c(c(O)nn2C)/C=C/c2n[nH]c3ccc(cc23)-c2cnn(C)c2O1 [Example 148, (10S,17E)-8,10,12,14-tetramethyl-2,10,11,12,13,14-hexahydro-8H-3,5-ethenotripyrazolo[3,4-f:3′,4′-j:4″,3″-n][1,4]oxazacyclopentadecin-16-ol] | 6.43 | 6.39 | 7.46 | 7.63 | 7.37 | 8.37 | 8.56 |
| Cc1nn([C@H]2CN(C)C[C@@H]2O)c2c1/C=C/c1n[nH]c3ccc(cc13)-c1cnn(C)c1OCCCO2 (racemic) [Example 75, (rac)-4-[(17E)-8,16-dimethyl-2,8,11,12-tetrahydro-10H,14H-3,5-etheno[1,5]dioxacyclopentadecino[10,11-c:15,14-c′:6,7-c″]tripyrazol-14-yl]-1-methylpyrrolidin-3-ol] | 6.53 | 7.07 | 7.22 | 7.54 | 7.25 | 7.76 | 7.67 |
